From a melting point compilation (Tetko et al.)

Structure (SMILES)	melting point [°C]
CCOC(=O)CCc1ccc2c(c1)NC(=O)CC2	124
COc1cc(C=C2C(=O)NC(=N)N2C)ccc1O	270 to 273
ON=Cc1ccc(F)cc1	83.5
CC1=NN(c2ccccc2)C(=O)C1=Cc1c(O)c2cccc(C)c2[nH]c1=O	171
Cc1oc(-c2ccccc2)nc1C(=O)Cl	135 to 136
CCCOc1ccc([N+](=O)[O-])cc1N	49
C=CCN=C=S	-80
CC12CCC(O)CC1CCC1C2C(O)CC2(C)C(C3=CC(=O)OC3)CCC12O (centres undefined)	280
Nc1c(Br)cc(C(F)(F)F)cc1[N+](=O)[O-]	71
CCn1c(=O)c(C=C2C(=O)NN=C2c2c(O)c3ccccc3n(C)c2=O)c(O)c2ccccc21	295
CC1=C(C(=O)O)C(c2ccccc2)N(C)C(=O)N1C (centres undefined)	165
O=C(O)c1ccc(-c2ccco2)s1	187 to 188
O=C(O)CNc1ccc(Br)cc1C(=O)O	211 to 215
O=C(O)c1ccc(-c2ccco2)cc1	231 to 232
COc1ccc(N=C(CNc2ccc(OC)cc2)Nc2ccc(OC)cc2)cc1	158 to 159
N#Cc1cc(I)ccc1F	72
Cc1c(C=O)cnn1-c1ccccc1	76 to 77
CCOC(=O)c1ccc(NC(=O)C(C(F)(F)F)C(F)(F)F)cc1	166
Cn1c(C(=O)O)cc2occc21	200
CC(C)(C)OC(=O)NC(CC(N)=O)C(=O)O (centres undefined)	179 to 182
O=C(Oc1c(F)c(F)c(F)c(F)c1F)c1cncnc1	121 to 124
COc1cccc(OC)c1	-52
CSCN1C(=O)NC(c2ccccc2)(c2ccccc2)C1=O	124 to 131
CCC(Cc1c(I)cc(I)c(N)c1I)C(=O)O (centres undefined)	155
CC1(C)CC(=O)c2cc(-c3ccccc3)n(Cc3cccnc3)c2C1	146 to 148
CC(C)(S)C(=O)O	47

Structure (SMILES)	melting point [°C]
Cc1cc(S(=O)(=O)Cl)ccc1Br	59
CCOc1cc([N+](=O)[O-])c(OCC)cc1N1CCOCC1	139 to 141
CC(=O)C1CCC2(C)C(CCC3C4CCC(O)C4(C)CCC32)C1 (centres undefined)	145
O=Cc1ccc(-c2ccncc2)cc1	101 to 104
CC1C2CCCC(C2=NNC(N)=S)C2(O)CCCCC12 (centres undefined)	195
Cc1ccc2cccc(Cl)c2n1	67
CC(C)(C#N)C(C)(C)C#N	170
Clc1ncnc2sc(-c3ccccc3)cc12	139 to 140
CC12CCC(OC=O)CC1CCC1C2CCC2(C)C1CCC2(O)C#Cc1ccccc1 (centres undefined)	205
O=C(Cl)c1ccccc1I	30 to 32
N[C@H](c1ccccc1)[C@@H](O)c1ccccc1	142 to 144
CC1CCC(=O)N1 (centres undefined)	43
CCOC(=O)C1C(c2ccc(C)cc2)C(C(=O)OCC)C(O)(C(F)(F)F)NC1(O)C(F)(F)F (centres undefined)	93
CC(=O)Nc1cc2c(cc1/C=C/c1ccccc1)CC(c1ccccc1)N2C(C)=O (centres undefined)	272
NC(=O)NN=Cc1ccc2c(Br)cccc2c1	270
Cc1nc(-c2ccc(C(=O)Cl)cc2)no1	112 to 113
CC(C)(C)c1ccc(CSc2cnn(C(C)(C)C)c(=O)c2Cl)cc1	112
O=C(O)CCCCCCCCCCCCCCO	97 to 99
C[Si](C)(C)OC1(C#Cc2ccccc2)Cc2ccccc21 (centres undefined)	64
O=C(O)Cc1csc2ccc(Cl)cc12	154
C=CC(=O)OCCCCCCCC(C)C	-100
COc1ccc(/C(C)=C/C(C)=O)cc1	52.5 to 53
Nc1ccc2c(c1)C(=O)OC21c2ccc(O)cc2Oc2cc(O)ccc21	223
CC(C)Nc1ccc(C#N)cc1[N+](=O)[O-]	113 to 115
O=[N+]([O-])c1ccc(ON=Cc2cc(Br)c(O)c(Br)c2)c([N+](=O)[O-])c1	196
Cc1cccc(C(O)c2ccccc2)c1 (centres undefined)	53

Structure (SMILES)	melting point [°C]
CN1C(CCl)Nc2cc(Cl)c(S(N)(=O)=O)cc2S1(=O)=O (centres undefined)	225
O=C(O)C1CN(C(c2ccccc2)c2ccccc2)C1	178 to 180
Cc1cc2ccccc2c2ccc3ccccc3c12	118
Cn1c(=O)c(C2=NNC(=O)C2=NNc2ncccn2)c(O)c2ccccc21	302
Nc1cccnc1O	118 to 130
Cn1c(=O)c(C2=NNC(=O)C2=Cc2ccccn2)c(O)c2ccccc21	292
N#CC(C=O)c1ccc(Cl)cc1 (centres undefined)	157
COC(=O)c1ccc(S(=O)(=O)c2ccc(C(=O)OC)cc2)cc1	193 to 200
CC(=O)C(=Cc1ccccc1)C(=O)OC1CC(C)CCC1C(C)C (centres undefined)	133
Cc1cc(CO)c(O)c(CO)c1	129
OC[C@H]1O[C@H](CO)[C@@H](O)[C@@H]1O	100 to 103
O=C=Nc1cccc(-n2cccc2)c1	46 to 47
Cc1cc(C(C)(C)C)nc(C(C)(C)C)c1	33 to 36
CC(=O)Oc1ccc(C(C)(C)c2ccc(OC(C)=O)cc2)cc1	86 to 91
CN1CCCN(CC#N)CCN(CC#N)CCCN(CC#N)CC1	88
CCCC(c1ccc(O)cc1)c1ccc(O)cc1	137
Ic1ccc(N2CCOCC2)nc1	133
CSC(SC)=C(C#N)C(=O)c1ccc(Cl)cc1	82 to 84
O=[N+]([O-])c1ccc(Cl)nc1Cl	64
CCC(C)Br (centres undefined)	-112
C[Si](C)(Cl)C(Cl)Cl	-48
O=C(O)c1cscc1Sc1ccc(Cl)cc1	195 to 198
CCCCCCCc1ccc(O)cc1	26.5
COC(=O)c1cc(Br)cc(Br)c1	63
Cc1nc2sccn2c1C(=O)NN	150
Cc1onc(-c2ccccc2)c1C(=O)O	192 to 193

Structure (SMILES)	melting point [°C]
NS(=O)(=O)c1cc2c(cc1Cl)CN(C1CCCCC1)C2=O	267
O=C1c2ccccc2OC(CCCl)N1O (centres undefined)	114 to 116
Nc1cc(F)ccc1-n1ccnc1	127
O=[N+]([O-])c1ccc(O)cc1C(F)(F)F	76
CC1(C)C=CC=C(C(=O)O)C=C1	88.5
Cc1nc(-c2ccc(Br)s2)no1	54 to 55
O=C(Nc1ccccc1)C(C(F)(F)F)C(F)(F)F	165 to 167
CC(=O)/C=C1\Cc2ccccc21	79 to 79.6
CC(=O)c1ccc([N+](=O)[O-])s1	106
CCCCCCCCCC(=O)OCC	-20
COc1ccc2nc(NN)nnc2c1	238 to 240
O=C(O)C=Cc1ccc(OC(F)(F)F)cc1	178 to 179
N#Cc1cc(-c2ccccc2)oc1N	196 to 197
CCOC(=O)c1c(C)[nH]c2ccc(O)cc12	206 to 210
CCN(CC(=O)O)C(=O)OC(C)(C)C	88
O=C(Nc1nnc(-c2ccc(Cl)cc2)o1)c1ccc(Cl)cc1	278 to 279
CCC(C)C(NC(=O)OCC1c2ccccc2-c2ccccc21)C(=O)O (centres undefined)	146 to 149
Cn1c(=O)[nH]c2ccccc21	192 to 196
C=Cc1ccc(I)cc1	44
CC(=O)Nc1ccc(N=Nc2ccc(N=Nc3ccc(/N=N/c4ccc(NC(C)=O)cc4)cc3)cc2)cc1	245 to 248
OC1C=C2CCN3Cc4cc5c(cc4C(C1O)C23)OCO5 (centres undefined)	280
S=C(c1ccc2c(c1)OCO2)N1CCCCC1	113
COCc1ccc(O)c([N+](=O)[O-])c1	123
COC(=O)CCC(C)C1CCC2C3C(OC(C)=O)C(Br)C4CCCCC4(C)C3CCC12C (centres undefined)	158 to 159
BrCC(CBr)=C(CBr)CBr	135 to 145
CCCCCCc1ccc(C(=O)O)cc1	94 to 99

Structure (SMILES)	melting point [°C]
COC(=O)c1ccc(C(=O)CC#N)cc1	170 to 174
N#Cc1ccc(OC(F)F)cc1	40 to 42
CC(C)C[C@H]1OC[C@@H](C)CO1	< -21
N#CCCN(CCC#N)c1ccccc1	80 to 88
CCC(C)c1cc([N+](=O)[O-])cc([N+](=O)[O-])c1OC(=O)OC(C)C (centres undefined)	61.5
CC1Sc2ccc(Cl)cc2-c2nc(N)ncc21 (centres undefined)	181 to 183
CC#CCOS(=O)(=O)c1ccc(C)cc1	47.5
O=C(O)CC(CC(=O)O)c1ccc(C(F)(F)F)cc1	166 to 168
COc1ccc(-c2cc(=O)c3c(O)cc(O)cc3o2)cc1O	254
NC(=O)c1ccc(C(=O)O)cc1	300
CCOc1ccc(Br)cc1C=O	69
CCOC(=O)c1ccc(O)c(OC)c1	44
Cc1c(Cl)cc(Cl)c(O)c1Cl	46
CCCCCCCC(=O)CCC	4.5
CCOP(=O)(OCC)OC(=CCl)c1ccc(Cl)cc1Cl	-20
CC(=O)c1sc(-c2ccccc2)cc1N	135 to 137
N#Cc1ccc(F)cc1C#N	101
CCN(CC)CCC#N	-64
CCOC(=O)c1nn(-c2ccc(C)cc2)c(C)c1C(=O)C1=NOC2C(=O)N(c3ccc(Br)cc3)C(=O)C12 (centres undefined)	238
CSc1ncc(C(=O)O)n1Cc1ccccc1	178 to 179
CC(=O)C=CC=Cc1ccccc1	68
CCCCOc1ccc(N)c([N+](=O)[O-])c1	64 to 66
CCN(CC)CCc1c[nH]c2ccccc12	170
CC12CCC(c3c(Br)cc(=O)oc31)C2(C)C (centres undefined)	105
FC(F)(F)c1nn(CN2CCN(Cn3nc(C(F)(F)F)n(N=Cc4cccs4)c3=S)CC2)c(=S)n1N=Cc1cccs1	187
